Patent US11110089B2, “Pyridazinones and their use in the treatment of cancer” (THE UNITED STATES OF AMERICA, AS REPRESENTED BY THE …, priority 2015, dated 2021)
pIC50: −log10 of the molar value.

Columns and labels:
[1] = target: T1, recombinant thioredoxin reductase 1 (TrxR1) (Homo sapiens, UniProt Q16881); assay: Inhibition of recombinant TrxR1 (DTNB assay); format: biochemical; conditions: 15 nM TrxR1, 250 μM NADPH, 15 minutes incubation, 2.5 mM DTNB, O.D. at 412 nm; read-out: TrxR inhibition
T1 sequence (Q16881 151-649 limits assumed): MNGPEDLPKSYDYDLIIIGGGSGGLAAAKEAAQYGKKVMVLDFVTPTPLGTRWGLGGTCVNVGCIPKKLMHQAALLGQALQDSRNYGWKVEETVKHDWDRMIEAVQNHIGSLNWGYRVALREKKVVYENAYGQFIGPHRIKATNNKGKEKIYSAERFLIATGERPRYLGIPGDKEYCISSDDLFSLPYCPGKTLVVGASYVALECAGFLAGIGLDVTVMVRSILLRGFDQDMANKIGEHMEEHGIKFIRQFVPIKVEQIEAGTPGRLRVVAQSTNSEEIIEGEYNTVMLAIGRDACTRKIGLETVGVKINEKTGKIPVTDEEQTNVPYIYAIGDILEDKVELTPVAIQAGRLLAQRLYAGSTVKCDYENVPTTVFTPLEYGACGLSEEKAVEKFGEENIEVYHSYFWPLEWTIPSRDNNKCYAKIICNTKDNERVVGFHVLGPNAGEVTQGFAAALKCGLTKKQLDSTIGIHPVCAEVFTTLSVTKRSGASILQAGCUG
Experimental: (§1) Small molecule inhibition of recombinant thioredoxin reductase 1 (TrxR1) and gluthathione reductase (GR) was examined in 96-well plate format. 15 nM TrxR1 was incubated in the presence of 250 μM NADPH, 0.1 mg/ml BSA, and various concentrations of the compound of Example 1 (1% DMSO final) in 50 mM Tris (pH 7.5) and 2 mM EDTA buffer for 15 minutes. Following the incubation period, 2.5 mM DTNB was added to each well and the change in O.D. at 412 nm was followed. Percent activity was determined using DMSO vehicle and no TrxR1 (blank) controls. 2 nM GR was incubated in the presence of 250 μM NADPH, 0.1 mg/ml BSA, and various concentrations of compounds (1% DMSO final) in 50 mM Tris (pH 7.5) and 2 mM EDTA buffer for 15 minutes. Following the incubation period, 1 mM GSSG was added to each well and the change in O.D. at 340 nm was followed. Percent activity was determined using DMSO vehicle and no GR (blank) controls.

[2] = target: T2, gluthathione reductase (GR) (Homo sapiens, UniProt P00390); assay: Inhibition of recombinant GR (GSSG assay); format: biochemical; conditions: 2 nM GR, 250 μM NADPH, 15 minutes incubation, 1 mM GSSG, O.D. at 340 nm
T2 sequence (P00390 44-522): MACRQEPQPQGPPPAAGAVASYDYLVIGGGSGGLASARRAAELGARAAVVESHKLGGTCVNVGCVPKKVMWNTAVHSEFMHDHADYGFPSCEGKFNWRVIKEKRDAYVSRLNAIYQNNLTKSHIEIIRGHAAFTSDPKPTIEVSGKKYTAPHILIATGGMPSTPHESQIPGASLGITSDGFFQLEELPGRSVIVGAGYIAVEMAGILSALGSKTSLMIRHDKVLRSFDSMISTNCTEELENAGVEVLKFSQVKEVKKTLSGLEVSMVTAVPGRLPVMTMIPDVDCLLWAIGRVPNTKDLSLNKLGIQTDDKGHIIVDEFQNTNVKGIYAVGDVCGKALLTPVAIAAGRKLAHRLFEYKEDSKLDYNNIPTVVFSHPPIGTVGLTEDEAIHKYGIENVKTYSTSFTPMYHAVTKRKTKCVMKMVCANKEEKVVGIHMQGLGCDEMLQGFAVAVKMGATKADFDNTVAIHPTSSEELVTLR
Experimental: as §1

pIC50 [1]: 5.73
pIC50 [2]: < 4.00
Compound: O=c1c(Cl)c(Cl)cnn1Cc1nnc(-c2ccc(Cl)cc2)o1 [Example 1, 4,5-dichloro-2-((5-(4-chlorophenyl)-1,3,4-oxadiazol-2-yl)methyl)pyridazin-3-one]
